# Where a SMILES comes first, the peptide text is derived from it. [ ]: non-standard residue; d: D form. dPra = C#CC[C@@H](N)C(=O)O; Ahx = NCCCCCC(=O)O
# Experiments:
# Type in all cases: cell-based
# [1] = test system: weakly LMP1-positive (C666-1) and LMP1-negative cell lines (HeLa, MRCS); test: MTT cytotoxicity assay, weakly LMP1-positive or LMP1-negative cells
# Procedure: (§1) To study the effects of the designed probes on cell survival, the MTT cytotoxicity assay was carried out in several highly LMP1-positive (LCL3, AFB1, AG876), weakly LMP1-positive (C666-1) and LMP1- negative cell lines (HeLa, MRCS), as shown in FIG. 9.
# (§2) LCL3, AG876, AFB1 and C666-1 cells were grown in RPMI-1640 medium. HeLa cells were cultivated in DMEM medium and MRCS cells are cultivated in MEM medium (Gibco, USA). All media are supplemented with 10% fetal bovine serum and 1% penicillin/streptomycin antibiotics. All the cells are cultivated in a humidified incubator with 5% CO2 at 37° C. The pTRE-EGFP plasmid was transduced into LCL3 cells as previously mentioned.
# NF-κB activity = test: pTRE-EGFP reporter of NF-κB activity in LCL3 cells; conditions: LCL3, 6 hours
# Procedure: (§3) We then investigate the inhibitory effects of our anti-LMP1 conjugates on the NF-κB pathway, which is one of the major pathways that EBV has hijacked for promoting cell growth and proliferation in EBV-associated tumours. Since NF-κB is typically activated by the canonical pathway which involves the nuclear translocation of the heterodimer of p50 and p65, immunofluorescence imaging of NF-κB p65 was then performed. Tumour necrosis factor alpha (TNFα) was added to these tumour cells, so as to activate the NF-κB pathway.
# The antibodies including anti-LMP1 were purchased from Kerafast, while anti-NF-κB p65, anti-NF-κB p105/50, anti-histone H3, anti-GAPDH were purchased from Cell Signaling Technology. Anti-rabbit IgG HRP-linked, anti-mouse IgG HRP-linked, protease/phosphatase inhibitor cocktail were purchased from Cell Signaling Technology. Alexa Fluor 488-conjugated goat anti-mouse IgG, NucBlue fixed cell ready probes (DAPI), and ProLong gold antifade mountant with DAPI were purchased from Invitrogen. The transcriptional response element (TRE)-fluorescent protein reporter, pTRE-EGFP plasmid, was constructed as previously reported.
# LCL3, AG876, AFB1 and C666-1 cells were grown in RPMI-1640 medium. HeLa cells were cultivated in DMEM medium and MRCS cells are cultivated in MEM medium (Gibco, USA). All media are supplemented with 10% fetal bovine serum and 1% penicillin/streptomycin antibiotics. […]
# NF-κB p65 and p50 = test: Western blot of nuclear NF-κB p65 and p50; conditions: for nuclear p65 and p50 expression: LCL3 and AFB1, TNFα 10 ng/mL pre-treatment, compared with control
# Procedure: Western blot analysis was also carried out to validate the above imaging results for the components in NF-κB pathway. The LMP1-overexpressing LCL3 and AFB1 cell lines were used for this analysis. […] After 24 hours incubation, the nuclear extracts were separated for each treatment, and the expression of NF-κB p65 and p50 was detected by Western blot analysis. […] Western blots of individual replicates for NF-κB p65 and p50 in different cell lines were illustrated in FIG. 14. […] The reduction in NF-κB activity can contribute to the cytotoxicity of the three compounds towards LMP1-overexpressing cells.
# Cells with different treatments were harvested and washed with phosphate-buffered saline (PBS). Lysis buffer supplied by 1X proteases-phosphatase inhibitor were added into the cells for 5 min on ice. Then the samples were centrifuged at 14,000×g at 4° C. for 20 minutes. The fractionated cell lysates were subjected to SDS-PAGE gel and transferred onto PVDF membranes. Membranes were then blocked by 3% non-fat milk for 30 minutes at room temperature and incubated with specific primary antibodies at 4° C. overnight. They were then washed with TBST buffer and incubated with corresponding secondary antibodies for 1 h at room temperature. Then, the membranes were washed with TBST, and chemiluminescence substrate was added onto the membrane surface. ChemiDoc XRS system and Image Lab Software were used to visualize the blot.
# NF-κB p65 = test: Immunofluorescence imaging of NF-κB p65 after TNFα activation; conditions: for effect on p65 fluorescence signal: LCL3, 10 μM, 24 h, TNFα 10 ng/ml preincubation
# Procedure: as §3
# These assays were prepared and conducted at room temperature, unless otherwise stated. Cells with different treatment were fixed by formalin for 15 min. The samples were then washed with PBS and 0.2% Triton-X buffer was added onto the samples for 15 min. 3% BSA in PBS was served as the blocking buffer and applied onto the sample for 30 minutes at room temperature. The primary antibody was diluted in blocking buffer and added onto the sample at 4° C. overnight. The samples were washed with PBS and corresponding secondary antibodies were added over 1 h. Samples were washed with PBS and mountant was applied to each sample. Images were acquired either using a 370 nm laser excitation or from a 370 nm LED excitation of a Nikon Eclipse Ti2 Confocal Microscope. NIR images were captured by a NIRvana TE 640 camera. The signal enhancement of the C666-1 images were obtained by enhancing the exposure of the captured images by the NIS element AR software. Multiphoton microscopy was conducted by Leica TCS SP8 MP System.
# [2] = MTT cytotoxicity assay, all selected cell lines; conditions: read-out: LC50 (the source's name)
# Procedure: as §1, §2
smiles,measurement,setting,value
"C#CC[C@@H](N)C(=O)N[C@@H](CCCCN)C(=O)NCCCCCC(=O)N[C@@H](CCCCN)C(=O)N[C@@H](CC(C)C)C(=O)N[C@@H](CC(=O)O)C(=O)N[C@@H](CC(C)C)C(=O)N[C@@H](C)C(=O)N[C@@H](CC(C)C)C(=O)N[C@@H](CCCCN)C(=O)N[C@@H](Cc1ccccc1)C(=O)N[C@@H](Cc1c[nH]c2ccccc12)C(=O)N[C@@H](CC(C)C)C(=O)N[C@@H](Cc1ccc(O)cc1)C(=O)N[C@@H](CCCCN)C(=O)N[C@H](C(=O)N[C@H](C(=O)N[C@@H](CCSC)C(=O)N[C@@H](CO)C(=O)N[C@@H](CC(=O)O)C(=O)N[C@@H](CCCCN)C(=O)N[C@@H](Cc1c[nH]c2ccccc12)C(=O)N[C@@H](CCCCN)C(=O)N[C@@H](CCCNC(=N)N)C(=O)N[C@H](CCCNC(=N)N)C(=O)N[C@@H](CCCNC(=N)N)C(=O)N[C@@H](CCCCN)C(=O)O)C(C)C)[C@@H](C)CC [P19, Pra-KAhx-K-LDLALK-FWLY-K-IVMSDKW-K-RrRK] (H-[dPra]K[Ahx]KLDLALKFWLYKIVMSDKWKR[dR]RK-OH; N-terminus and C-terminus assumed)",cytotoxicity,[1],relatively low
same,GFP reporter signals,NF-κB activity,decreased
same,changes in expression of p65 and p50,NF-κB p65 and p50; C666-1 and HeLa cells,relatively minor
same,nuclear p65 and p50 expression,NF-κB p65 and p50,significantly weakened
same,effect on p65 fluorescence signal,NF-κB p65,significant suppression
same,effect on NF-κB pathway (p65 fluorescence),NF-κB p65; LMP1-negative HeLa and weak LMP1-expressing C666-1 cells,did not exhibit any effect
"C#CC[C@@H](N)C(=O)N[C@@H](CCCCN)C(=O)NCCCCCC(=O)N[C@@H](CCCCN)C(=O)N[C@@H](CC(C)C)C(=O)N[C@@H](CC(=O)O)C(=O)N[C@@H](CC(C)C)C(=O)N[C@@H](C)C(=O)N[C@@H](CC(C)C)C(=O)N[C@@H](CCCCN)C(=O)N[C@@H](C)C(=O)N[C@@H](C)C(=O)N[C@@H](C)C(=O)N[C@@H](C)C(=O)N[C@@H](CCCCN)C(=O)N[C@H](C(=O)N[C@H](C(=O)N[C@@H](CCSC)C(=O)N[C@@H](CO)C(=O)N[C@@H](CC(=O)O)C(=O)N[C@@H](CCCCN)C(=O)N[C@@H](Cc1c[nH]c2ccccc12)C(=O)N[C@@H](CCCCN)C(=O)N[C@@H](CCCNC(=N)N)C(=O)N[C@H](CCCNC(=N)N)C(=O)N[C@@H](CCCNC(=N)N)C(=O)N[C@@H](CCCCN)C(=O)O)C(C)C)[C@@H](C)CC [P19C, reference compound] (H-[dPra]K[Ahx]KLDLALKAAAAKIVMSDKWKR[dR]RK-OH; N-terminus and C-terminus assumed)",nuclear p65 and p50 expression,NF-κB p65 and p50,no obvious change
same,CC50,[2],> 200 µM
same,effect on p65 fluorescence signal,NF-κB p65,no significant effect
